Data set [1] concerns BLT2-expressing cells [BLT2가 발현된 세포 (CHO-BLT2 cells)]. As to the kind of experiment: LTB4-induced BLT2-dependent chemotactic motility (Transwell), CHO-BLT2. The conditions noted are these: for inhibition of chemotaxis: LTB4-stimulated CHO-BLT2 cells, result in words; for IC50: read-out: IC50 (50% inhibitory concentration), chemotaxis, CHO-BLT2 cells, LTB4-induced, serum-free; for inhibition at 10 µM: 10 μM pretreatment, compared with LTB4 (300 nM) treatment (DMSO+), read-out: chemotaxis inhibition. Format: cell-based, human.

Data set [2] has as its system BLT1-expressing cells [BLT1이 발현된 세포 (CHO-BLT1)]. As to the kind of experiment: LTB4-induced chemotactic motility (Transwell), CHO-BLT1. It is filed as cell-based.
Data set [3] has as its system BLT2-expressing cells [BLT2가 발현된 세포 (CHO-BLT2 cells)]. Description: LPA-induced chemotactic motility (Transwell), CHO-BLT2. It is filed as cell-based, human.
The test system is the same in data set [4]. Description: Growth inhibition of BLT2-expressing cells (MTT cell viability). Format: cell-based. The conditions noted are these: for inhibition at 10 µM: 10 μM pretreatment 1 h, then LTB4 300 nM, 24 h, read-out: growth inhibition effect; for inhibition of BLT2-induced cell proliferation: 10 μM, LTB4 300 nM, result in words.
For data set [5], the system named is inflammatory cells (neutrophils) [염증세포(호중구)]. Description: Inflammatory cell infiltration in BALF, cigarette smoke and LPS induced COPD mice. The conditions noted are these: C57BL/6N mice, oral 1 h before smoke, result in words. Format: in vivo, mouse.
The subject of data set [6] is neutrophil elastase (NE). Description: NE measurement in BALF, cigarette smoke and LPS induced COPD mice. The conditions noted are these: C57BL/6N mice, oral 1 h before smoke, result in words. It is filed as in vivo, mouse.
Data set [7] relates to reactive oxygen species (ROS). As to the kind of experiment: ROS measurement in BALF, cigarette smoke and LPS induced COPD mice. Format: in vivo, mouse. The conditions noted are these: C57BL/6N mice, oral 1 h before smoke, result in words.
Data set [8] relates to TNF-α. As to the kind of experiment: TNF-α measurement in BALF, cigarette smoke and LPS induced COPD mice. It is filed as in vivo, mouse. The conditions noted are these: C57BL/6N mice, oral 1 h before smoke, result in words.
Data set [9] relates to IL-6. Description: IL-6 measurement in BALF, cigarette smoke and LPS induced COPD mice. It is filed as in vivo, mouse. The settings on record: C57BL/6N mice, oral 1 h before smoke, result in words.
Data set [10] relates to cigarette smoke and lipopolysaccharide induced chronic obstructive pulmonary disease animal model [담배연기 및 지질다당류로 유발된 만성 폐쇄성 폐질환 동물 모델]. As to the kind of experiment: H&E staining of lung tissue, cigarette smoke and LPS induced COPD mice. It is filed as in vivo, mouse. The conditions noted are these: C57BL/6N mice; for improvement of lung inflammation: cigarette smoke + LPS COPD model, overall result in words; for infiltration of inflammatory cells (H&E): cigarette smoke + LPS, 10 or 20 mg/kg oral, lung tissue, compared with COPD group, result in words.

Setting [11] is: 10 μM pretreatment, compared with LTB4 (10 nM) treatment (DMSO+), result in words.

Where only a bound is given, the exact number is not on record here.

As to `CCCCC(=O)N(Cc1ccc(-c2ccc(OCC(=O)O)cc2)cc1)c1cccc(F)c1` [AC-1074, 2-(4'-((N-(3-fluorophenyl)pentanamido)methyl)biphenyl-4-yloxy)acetic acid], the inhibition of chemotaxis result in data set [1] was “현저히 저해”. Also, the change in chemotaxis result is listed as “변화가 없음” in data set [2] (setting [11]) and “변화가 없음” in data set [3] (10 μM pretreatment, compared with LPA (100 nM) treatment (DMSO+), result in words).
A word on the inhibition: it is the percentage by which the read-out fell short of the control. For `CCCCC(=O)N(Cc1ccc(-c2ccc(O)cc2)cc1)c1cccc(Br)c1` [AC-1632, N-(3-bromophenyl)-N-((4'-hydroxybiphenyl-4-yl)methyl)pentanamide], in data set [4], the inhibition at 10 µM came to 78.7% and the “inhibition of BLT2-induced cell proliferation” value is on record as “매우 우수한 효율로 억제”.
For `CCCCC(=O)N(Cc1ccc(-c2ccc(O)cc2)cc1)c1cccc(C(F)(F)F)c1` [AC-1635, N-((4'-hydroxybiphenyl-4-yl)methyl)-N-(3-(trifluoromethyl)phenyl)pentanamide], in data set [4], the inhibition at 10 µM worked out at 71.6% and the “inhibition of BLT2-induced cell proliferation” value is listed as “매우 우수한 효율로 억제”.
The corresponding values for `COc1ccc(-c2ccc(CN(C(C)=O)c3cccc(F)c3)cc2)cc1` [AC-1646, N-(3-fluorophenyl)-N-((4'-methoxybiphenyl-4-yl)methyl)acetamide] are 72.1% and “매우 우수한 효율로 억제”.
As to `CCCCC(=O)N(Cc1ccc(-c2ccc(C(=O)N3CCN(C(C)C)CC3)cc2)cc1)c1ccc(F)cc1` [AC-1650, N-(4-fluorophenyl)-N-((4'-(4-isopropylpiperazine-1-carbonyl)biphenyl-4-yl)methyl)pentanamide], in data set [4], the inhibition at 10 µM was found to be 82.2% and the “inhibition of BLT2-induced cell proliferation” value is “매우 우수한 효율로 억제”.
On to `CCCCC(=O)N(CC#Cc1ccc(C(=O)N2CCN(C)CC2)cc1)c1ccccc1` [LMT-692, N-(3-(4-(4-methylpiperazine-1-carbonyl)phenyl)prop-2-ynyl)-N-phenylpentanamide], for which, in [4], the “inhibition of BLT2-induced cell proliferation” value is reported as “매우 우수한 효율로 억제”. For the same compound, in [1] (Homo sapiens), the IC50 amounted to 7570 nM and the inhibition at 10 µM amounted to 66%. In addition, the inhibition of chemotaxis result in [1] was “현저히 저해”. The chemotaxis inhibition result in data set [2] (setting [11]) is on record as “억제되지 않음”.
For `CCCCC(=O)N(CC#Cc1ccc(C(=O)N2CCNCC2)cc1)c1ccccc1` [LMT-694, N-phenyl-N-(3-(4-(piperazine-1-carbonyl)phenyl)prop-2-ynyl)pentanamide], the inhibition at 10 µM in [1] (Homo sapiens) turned out to be 90%. Moreover, the chemotaxis inhibition entry in data set [2] (setting [11]) was “억제되지 않음”.
Take `CCCCC(=O)N(CC#Cc1ccc(C(=O)N2CCN(C(C)C)CC2)cc1)c1ccccc1` [LMT-696, N-(3-(4-(4-isopropylpiperazine-1-carbonyl)phenyl)prop-2-ynyl)-N-phenylpentanamide]: the “inhibition of BLT2-induced cell proliferation” value in data set [4] is reported as “매우 우수한 효율로 억제”. For the same compound, in data set [1] (Homo sapiens), the IC50 came out at 2000 nM and the inhibition at 10 µM is 70.3%. For the same compound, the inhibition of chemotaxis entry in data set [1] is listed as “현저히 저해”. Further, in data set [2] (setting [11]), the chemotaxis inhibition entry was “억제되지 않음”.
As for `CCCCC(=O)N(CC#Cc1cccc(C(=O)N2CCNCC2)c1)c1ccccc1` [LMT-837, N-phenyl-N-(3-(3-(piperazine-1-carbonyl)phenyl)prop-2-ynyl)pentanamide], in [4], the inhibition at 10 µM was found to be 65% and the “inhibition of BLT2-induced cell proliferation” value was “매우 우수한 효율로 억제”.
Regarding `CCCCC(=O)N(CC#Cc1ccc(C(=O)N2CCN(C(C)C)CC2)cc1)c1ccc(F)cc1` [LMT-841, N-(4-fluorophenyl)-N-(3-(4-(4-isopropylpiperazine-1-carbonyl)phenyl)prop-2-ynyl)pentanamide], in data set [4], the inhibition at 10 µM stood at 60% and the “inhibition of BLT2-induced cell proliferation” value is recorded as “매우 우수한 효율로 억제”.
The corresponding values for `CCCCC(=O)N(CC#Cc1cccc(C(=O)N2CCN(C(C)C)CC2)c1)c1ccccc1` [LMT-842, N-(3-(3-(4-isopropylpiperazine-1-carbonyl)phenyl)prop-2-ynyl)-N-phenylpentanamide] are 70% and “매우 우수한 효율로 억제”.
The corresponding values for `CCCCC(=O)N(CC#Cc1ccc(C(=O)N(CC)CC)cc1)c1ccccc1` [LMT-883, N,N-diethyl-4-(3-(N-phenylpentanamido)prop-1-ynyl)benzamide] are 99% and “매우 우수한 효율로 억제”.
As to `CCCCC(=O)N(CC#Cc1ccc(C(=O)N2CCN(C(C)C)CC2)cc1)c1cccc(F)c1` [LMT-886, N-(3-fluorophenyl)-N-(3-(4-(4-isopropylpiperazine-1-carbonyl)phenyl)prop-2-ynyl)pentanamide], in data set [4], the inhibition at 10 µM was found to be 99% and the “inhibition of BLT2-induced cell proliferation” value is on record as “매우 우수한 효율로 억제”. In addition, in data set [5], the “infiltration of inflammatory cells (neutrophils)” value is on record as “유의적으로 감소”. For the same compound, the NE production result in data set [6] was “유의적으로 감소”. Besides, the ROS production entry in [7] is given as “유의적으로 감소”. For the same compound, the TNF-α production entry in data set [8] was “현저히 감소”. In [9], the IL-6 production result is “현저히 감소”. In data set [10], the “improvement of lung inflammation” value is “폐의 염증을 개선하는 효능” and the “infiltration of inflammatory cells (H&E)” value was “감소”.
Regarding `CCCCC(=O)N(CC#Cc1ccc(C(=O)O)cc1)c1ccccc1` [LMT-1013, 4-(3-(N-phenylpentanamido)prop-1-yn-1-yl)benzoic acid], in data set [4], the “inhibition of BLT2-induced cell proliferation” value is listed as “매우 우수한 효율로 억제”. For the same compound, the IC50 in data set [1] (Homo sapiens) was determined as 62.4 nM. Also, the inhibition of chemotaxis entry in [1] is on record as “현저히 저해”. In data set [2] (read-out: IC50 (50% inhibitory concentration), chemotaxis, CHO-BLT1 cells, LTB4-induced, serum-free), the IC50 is not below 10000 nM. Also, in data set [5], the “infiltration of inflammatory cells (neutrophils)” value was “유의적으로 감소”. In addition, the NE production result in data set [6] is “유의적으로 감소”. The ROS production result in data set [7] is given as “유의적으로 감소”. Also, in data set [8], the TNF-α production entry is “현저히 감소”. The IL-6 production result in data set [9] is given as “현저히 감소”. Moreover, in [10], the “improvement of lung inflammation” value is given as “폐의 염증을 개선하는 효능” and the “infiltration of inflammatory cells (H&E)” value is recorded as “감소”.
Consider `CCCCC(=O)N(CC#Cc1ccc(C(=O)NCCN(C)C)cc1)c1ccccc1` [LMT-1016, N-(2-(dimethylamino)ethyl)-4-(3-(N-phenylpentanamido)prop-1-yn-1-yl)benzamide], for which, in [4], the inhibition at 10 µM stood at 99% and the “inhibition of BLT2-induced cell proliferation” value is listed as “매우 우수한 효율로 억제”.
Turning to `CCCCC(=O)N(CC#Cc1ccc(C(=O)NC(C)C(=O)OC)cc1)c1ccccc1` (centres unmarked) [LMT-1018, methyl 2-(4-(3-(N-phenylpentanamido)prop-1-yn-1-yl)benzamido)propanoate], in [4], the inhibition at 10 µM was determined as 71.6% and the “inhibition of BLT2-induced cell proliferation” value is given as “매우 우수한 효율로 억제”.
With `CCCCC(=O)N(CC#Cc1ccc(C(=O)NC(C)C(=O)O)cc1)c1ccccc1` (centres unmarked) [LMT-1019, 2-(4-(3-(N-phenylpentanamido)prop-1-yn-1-yl)benzamido)propanoic acid], in data set [4], the inhibition at 10 µM was found to be 99% and the “inhibition of BLT2-induced cell proliferation” value is “매우 우수한 효율로 억제”.
On to `CCCCCCCC/C=C\CCCCCCCC(=O)OC[C@@H](O)COP(=O)(O)O` [LPA, lysophosphatidic acid, reference compound], for which, in data set [3] (Homo sapiens, 3 h, LPA 100 nM (DMSO+) compared with ethanol (DMSO-), read-out: increase in cell chemotaxis), the fold induction at 0.1 µM was 3.4.
Consider `CCCCC/C=C\C[C@@H](O)/C=C/C=C/C=C\[C@@H](O)CCCC(=O)O` [LTB4, Leukotriene B4, reference compound], for which the fold induction at 0.3 µM in [1] (Homo sapiens, 3 h, LTB4 300 nM (DMSO+) compared with ethanol (DMSO-), read-out: increase in cell chemotaxis) came out at 2.4. Further, the “increase in cell chemotaxis” value was 2.9 fold in data set [1] (LTB4 300 nM (DMSO+) compared with ethanol (DMSO-), 180 min, 0.3 µM) and 2.8 fold in data set [2] (cho-blt1 cells, 3 h, 0.01 µM). For the same compound, the fold induction at 0.01 µM in data set [2] (3 h, LTB4 10 nM (DMSO+) compared with ethanol (DMSO-), read-out: increase in cell chemotaxis) amounted to 2.2.

Values taken from patent KR20180087157A, “Blt 저해 활성을 갖는 화합물을 유효성분으로 포함하는 만성 폐쇄성 폐질환 예방 또는 치료용 약학적 조성물” (동국대학교 산학협력단, priority 2017, dated 2018).
